# Laboratory results reported in US20240148900A1, “IMMUNOSTIMULATORY CYCLIC DI-NUCLEOTIDE DELIVERY SYSTEM COMPOSITIONS AND METHOD OF USE THEREOF” (VIRGINIA COMMONWEALTH UNIVERSITY, priority 2021, published 2024).
# Columns and labels:
# RAW264.7 macrophages = assay: Cell uptake of FluoCDG by flow cytometry; format: cell-based, murine; conditions: FluoCDG 0.5 μg/mL; free CDG over 2 h, formulations 0.5 h post incubation
# Method: CDG release from STING-NVs. First, STING-NVs were dispersed in 1 mL of 1×PBS at different pH and agitated at 200 rpm. Then the mixture was ultra-filtrated at each hour point. The filtrate was taken for CDG detection, and the same volume of fresh buffer was added back to the residual mixture. The amount of released CDG in the filtrate was determined by measuring the absorption at 254 nm using a UV-Vis spectrometer. Lipo-CDG Synthesis. DOTAP, cholesterol, and DSPE-PEG(2000) were purchased from Avanti Polar Lipids. Lipids were mixed at molar ratios of 1:1:0.2 DOTAP:cholesterol:DSPE-PEG(2000). Lipid mixtures were dried under a nitrogen stream in glass test tubes. The resulting lipid films were placed in a desiccation system overnight. […] The CDG content of the liposomes was determined by measuring the absorbance peak of the liposomes at 254 nm, corresponding to the maximum absorbance of CDG, subtracting the lipid contribution to absorbance at this wavelength. […] Secreted IFN-α was quantified with the LumiKine Xpress mIFN-α enzyme-linked immunosorbent assay kit (InvivoGen). Secreted IL-6 and IL-12 were quantified with the Mouse IL-6 Quantikine™ ELISA Kit (R&D Systems). […] Cells were analyzed for fluorescein signal (from fluorescein-modified CDG) on the CytoFLEX LX (Beckman Coulter) flow cytometer.
# [1] = Stability of CDG in 10% FBS-supplemented cell culture medium; format: in vitro ADME; conditions: 7 days in cell culture medium with 10% serum, 37° C., absorption at 254 nm
# From the text: FIG. 1A-H. Characterization of STING-NVs. (a) UV-vis absorbance spectra of PEG-b-PLA NPs, 5c-i-motif DNA, and 5c-NPs. […] Lane legends: 1: 25 bp DNA ladder; 2: 9C-i-motif; 3: 3C-NPs; 4: 5C-NPs; 5: 7C-NPs; 6: 9C-NPs. (c) DLS graphs showing the hydrodynamic diameters of 5C-NPs (79±34 nm, PDI 0.157) and STING-NVs (81±32 nm, PDI 0.131). (d) A TEM image of STING-NVs. (e) Zeta potential of blank NPs, CDG-loaded NPs, and Lipo-CDG. STING-NVs: CDG-loaded 5C-NPs. (f) Stability of free CDG and CDG loaded in STING-NVs over 7-day incubation in 10% FBS-supplemented cell culture medium (37° C.). A254nm: 254 nm absorption from CDG; A560nm: 560 nm absorption from medium as an internal reference. (g, h) MST traces (g) and fitting curve (h) of the kinetic interaction between 5C-NPs and CDG at pH 7.4. Data represent mean±standard deviation (SD) (n=3).
# The ability of STING-NVs to promote the biostability of CDG is presumably due to the steric hindrance of i-motif-NPs that prevent the access of nucleases. Using HPLC and microscale thermophoresis (MST), we further studied the binding of CDG with 5C-i-motifs, which is the basis for CDG loading into i-motif-modified NPs. In HPLC, relative to free CDG and 5C-i-motif, the delayed elution time of physically mixed CDG and 5C-i-motif indicated the complexation of CDG and 5C-i-motif (FIG. 10). […]
compound,measurement,setting,value
"Nc1nc2c(ncn2[C@@H]2O[C@@H]3COP(=O)(O)O[C@H]4[C@@H](O)[C@H](n5cnc6c(=O)[nH]c(N)nc65)O[C@@H]4COP(=O)(O)O[C@H]3[C@H]2O)c(=O)[nH]1 [free CDG, cyclic dimeric guanosine monophosphate]",FluoCDG fluorescence signal enhancement,RAW264.7 macrophages,only slight FluoCDG signal enhancement
same,intact CDG,[1],2.3%
